Reference: patent US7285543B2, “Purine inhibitors of fructose-1,6-bisphosphatase” (Metabasis Therapeutics, Inc., priority 1997, dated 2007)

Columns and labels:
human liver FBPase = biological target: T1, human liver FBPase (Homo sapiens, UniProt P09467); assay: Inhibition of human liver FBPase (coupled spectrophotometric assay); format: biochemical; conditions: for inhibition of hlFBPase (FIG. 2): result in words
T1 construct: made in house; host or cells: E. coli BL21
T1 sequence (P09467 2-338 limits assumed): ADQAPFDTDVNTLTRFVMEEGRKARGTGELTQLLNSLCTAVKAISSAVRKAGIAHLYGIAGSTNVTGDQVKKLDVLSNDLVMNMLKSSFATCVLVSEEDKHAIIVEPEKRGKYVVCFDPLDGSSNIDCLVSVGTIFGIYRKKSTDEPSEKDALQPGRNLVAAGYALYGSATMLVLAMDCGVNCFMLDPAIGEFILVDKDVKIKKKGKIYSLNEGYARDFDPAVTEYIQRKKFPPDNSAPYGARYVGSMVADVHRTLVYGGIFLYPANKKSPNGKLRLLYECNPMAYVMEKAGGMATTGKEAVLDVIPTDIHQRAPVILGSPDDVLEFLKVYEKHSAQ

mouse liver FBPase = biological target: T2, mouse liver FBPase (Mus musculus, UniProt Q9QXD6); assay: In vitro inhibition of mouse liver FBPase; format: biochemical
T2 construct: This partially purified fraction was used for enzyme assays; from tissue; host or cells: mouse liver
T2 sequence (Q9QXD6 2-338 limits assumed): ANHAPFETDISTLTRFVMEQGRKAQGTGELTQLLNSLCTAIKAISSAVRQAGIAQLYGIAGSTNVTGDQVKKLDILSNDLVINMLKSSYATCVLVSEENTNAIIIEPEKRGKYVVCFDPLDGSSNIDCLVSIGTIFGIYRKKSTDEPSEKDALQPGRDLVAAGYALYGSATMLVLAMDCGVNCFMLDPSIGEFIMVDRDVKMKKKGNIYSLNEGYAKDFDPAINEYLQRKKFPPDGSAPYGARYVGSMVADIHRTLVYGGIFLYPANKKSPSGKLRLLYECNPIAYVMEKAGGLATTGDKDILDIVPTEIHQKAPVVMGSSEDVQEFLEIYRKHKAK
Experimental: (§1) Mouse liver FBPase was obtained by homogenizing freshly isolated mouse liver in 100 mM Tris-HCl buffer, pH 7.4, containing 1 mM EGTA, and 10% glycerol. […] This fraction was redissolved in the homogenization buffer and desalted on a PD-10 gel filtration column (Biorad) eluted with same. This partially purified fraction was used for enzyme assays. Both rat liver and mouse liver FBPase were assayed as described for human liver FBPase.

rat liver FBPase = biological target: T3, rat liver FBPase (Rattus norvegicus, UniProt P19112); assay: In vitro inhibition of rat liver FBPase; format: biochemical
T3 construct: made in house; host or cells: E. coli BL21
T3 sequence (P19112 2-363 limits assumed): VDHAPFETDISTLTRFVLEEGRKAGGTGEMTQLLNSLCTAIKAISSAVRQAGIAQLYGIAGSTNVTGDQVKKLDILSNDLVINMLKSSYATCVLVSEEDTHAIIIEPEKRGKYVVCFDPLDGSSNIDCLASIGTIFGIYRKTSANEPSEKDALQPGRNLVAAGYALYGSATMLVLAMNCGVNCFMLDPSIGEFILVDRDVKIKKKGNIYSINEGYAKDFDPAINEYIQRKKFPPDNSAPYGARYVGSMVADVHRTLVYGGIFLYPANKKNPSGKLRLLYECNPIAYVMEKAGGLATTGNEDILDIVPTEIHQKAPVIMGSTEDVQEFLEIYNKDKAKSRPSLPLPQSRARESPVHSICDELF
Experimental: as §1

rat hepatocytes = assay: Inhibition of gluconeogenesis (glucose production from lactate/pyruvate) in rat hepatocytes; format: cell-based; conditions: from lactate/pyruvate, isolated rat hepatocytes
Experimental: Hepatocytes were prepared from overnight fasted Sprague-Dawley rats (250-300 g) according to the procedure of Berry and Friend (Berry, M. N., Friend, D. S., J. Cell. Biol. 1969, 43, 506-520) as modified by Groen (Groen, […]., Eur. J. Biochem. 1982, 122, 87-93). […] Incubations were carried out in a 95% oxygen, 5% carbon dioxide atmosphere in closed, 50-mL Falcon tubes submerged in a rapidly shaking water bath (37° C.). After 1 hour, an aliquot (0.25 mL) was removed, transferred to an Eppendorf tube and centrifuged. 50 μl of supernatant was then assayed for glucose content using a Sigma Glucose Oxidase kit as per the manufacturer's instructions.

Row | IC50 (human liver FBPase) [µM] | inhibition of hlFBPase (FIG. 2) (human liver FBPase) | IC50 (mouse liver FBPase) [µM] | IC50 (rat liver FBPase) [µM] | SMILES | IC50 (rat hepatocytes) [µM] | IC50 (rat hepatocytes; Hepatocyte) [µM]
1 | 1 | dose-dependent inhibition | – | – | Nc1ncnc2c1ncn2[C@@H]1O[C@H](COP(=O)(O)O)[C@@H](O)[C@H]1O [AMP, reference compound] | – | –
2 | 3.3 | – | > 20 | > 20 | Nc1ncnc2c1nc(-c1ccc(P(=O)(O)O)o1)n2Cc1ccc2ccccc2c1 [Compound 2.3, N^9-(2-naphthylmethyl)-8-(2-(5-phosphono)furanyl)adenine] | – | –
3 | – | – | – | – | CC(C)Cn1c(-c2ccc(P(=O)(O)O)o2)nc2c(N)ncnc21 [Compound 2.6, N^9-isobutyl-8-(2-(5-phosphono)furanyl)adenine] | 18 | –
4 | 2 | – | > 20 | – | Nc1ncnc2c1nc(-c1ccc(P(=O)(O)O)o1)n2C1CCCC1 [Compound 2.10, N^9-cyclopentyl-8-(2-(5-phosphono)furanyl)adenine] | – | 24
5 | 4.5 | dose-dependent inhibition | > 20 | – | CC(C)(CO)Cn1c(-c2ccc(P(=O)(O)O)o2)nc2c(N)ncnc21 [Compound 2.13, N^9-(1-(3-hydroxyl-2,2-dimethyl)propyl)-8-(2-(5-phosphono)-furanyl)adenine] | – | 50
6 | 0.9 | – | > 20 | > 20 | CC(C)(CCl)Cn1c(-c2ccc(P(=O)(O)O)o2)nc2c(N)ncnc21 [Compound 2.14, N^9-(1-(3-chloro-2,2-dimethyl)propyl)-8-(2-(5-phosphono)-furanyl)adenine] | – | 7.5
7 | 1.4 | – | > 20 | > 20 | CC1(C)C=CCC(C)(Cn2c(-c3ccc(P(=O)(O)O)o3)nc3c(N)ncnc32)C1 (centres unmarked) [Compound 2.16, N^9-(1,5,5-trimethyl-3-cyclohexenyl)methyl-8-(2-(5-phosphono)furanyl)-adenine] | – | 12
8 | 100 | – | > 20 | > 20 | Nc1ncnc2c1nc(NCCP(=O)(O)O)n2[C@@H]1O[C@H](CO)[C@@H](O)[C@H]1O [Compound 4.1, 8-(2-phosphonoethylamino)-adenosine] | – | –
9 | 10 | – | > 20 | > 20 | CC(C)(C)Cn1c(COCP(=O)(O)O)nc2c(N)ncnc21 [Compound 5.5, N^9-neopentyl-8-(phosphonomethoxymethyl)-adenine] | – | –
10 | 23 | – | > 20 | > 20 | Nc1ncnc2c1nc(SCP(=O)(O)O)n2CCC1CCCCC1 [Compound 8.1, N^9-(2-cyclohexylethyl)-8-(phosphonomethylthio)adenine] | – | –
11 | 50 | – | > 20 | > 20 | CN(C)c1ncnc2c1nc(-c1ccc(P(=O)(O)O)o1)n2CCc1ccccc1 [Compound 10.1, 6-Dimethylamino-N^9-phenethyl-8-(2-(5-phosphono)furanyl)purine] | – | –
12 | 0.7 | – | > 20 | – | CSc1nc(N)c2nc(-c3ccc(P(=O)(O)O)o3)n(CC(C)C)c2n1 [Compound 11.1, 6-amino-N^9-isobutyl-2-methylthio-8-(2-(5-phosphono)-furanyl)purine] | – | –
13 | 13 | – | > 100 | – | CC(C)(C)Cn1c(-c2oc(P(=O)(O)O)c(Cl)c2Cl)nc2c(N)ncnc21 [Compound 12.1, 6-amino-N^9-neopentyl-8-(2-(3,4-dichloro-5-phosphono)furanyl)purine] | – | –

Row | SMILES | IC50 (human liver FBPase) [µM] | inhibition of hlFBPase (FIG. 2) (human liver FBPase) | IC50 (mouse liver FBPase) [µM] | IC50 (rat liver FBPase) [µM] | IC50 (rat hepatocytes) [µM] | IC50 (rat hepatocytes; Hepatocyte) [µM]
14 | CCn1c(-c2ccc(P(=O)(O)O)o2)nc2c(N)ncnc21 [Compound 2.5, N^9-ethyl-8-(2-(5-phosphono)furanyl)adenine] | – | dose-dependent inhibition | – | – | – | –
